# Read-outs that look alike come from different tables or passages of the source.
# B1: A. oryzae CEL3A beta-glucosidase: beta-glucosidase (SEQ ID NO: 112) recombinantly prepared as described in WO 2004/099228 (protein, listed as Aspergillus oryzae)
# chain: MKLGWIEVAALAAASVVSAKDDLAYSPPFYPSPWADGQGEWAEVYKRAVDIVSQMTLTEKVNLTTGTGWQLERCVGQTGSVPRLNIPSLCLQDSPLGIRFSDYNSAFPAGVNVAATWDKTLAYLRGQAMGEEFSDKGIDVQLGPAAGPLGAHPDGGRNWEGFSPDPALTGVLFAETIKGIQDAGVIATAKHYIMNEQEHFRQQPEAAGYGFNVSDSLSSNVDDKTMHELYLWPFADAVRAGVGAVMCSYNQINNSYGCENSETLNKLLKAELGFQGFVMSDWTAHHSGVGAALAGLDMSMPGDVTFDSGTSFWGANLTVGVLNGTIPQWRVDDMAVRIMAAYYKVGRDTKYTPPNFSSWTRDEYGFAHNHVSEGAYERVNEFVDVQRDHADLIRRIGAQSTVLLKNKGALPLSRKEKLVALLGEDAGSNSWGANGCDDRGCDNGTLAMAWGSGTANFPYLVTPEQAIQNEVLQGRGNVFAVTDSWALDKIAAAARQASVSLVFVNSDSGEGYLSVDGNEGDRNNITLWKNGDNVVKTAANNCNNTVVIIHSVGPVLIDEWYDHPNVTGILWAGLPGQESGNSIADVLYGRVNPGAKSPFTWGKTRESYGSPLVKDANNGNGAPQSDFTQGVFIDYRHFDKFNETPIYEFGYGLSYTTFELSDLHVQPLNASRYTPTSGMTEAAKNFGEIGDASEYVYPEGLERIHEFIYPWINSTDLKASSDDSNYGWEDSKYIPEGATDGSAQPRLPASGGAGGNPGLYEDLFRVSVKVKNTGNVAGDEVPQLYVSLGGPNEPKVVLRKFERIHLAPSQEAVWTTTLTRRDLANWDVSAQDWTVTPYPKTIYVGNSSRKLPLQASLPKAQ
# B2: P. pinophilum GH61A polypeptide: GH61A polypeptide having cellulolytic enhancing activity (SEQ ID NO: 32), recombinantly prepared according to WO 2011/005867 (protein, listed as Penicillium pinophilum)
# chain: MPSTKVAALSAVLALASTVAGHGFVQNIVIDGKSYSGYLVNQFPYESNPPAVIGWATTATDLGFVAPSEYTNADIICHKNATPGALSAPVAAGGTVELQWTTWPDSHHGPVISYLANCNGNCSTVDKTKLDFVKIDQGGLIDDTTPPGTWASDKLIAANNSWTVTIPSTIAPGNYVLRHEIIALHSAGNADGAQNYPQCINLEITGSGTAAPSGTAGEKLYTSTDPGILVNIYQSLSTYVIPGPTLWSGAANGAVATGSATAVATTATASATATPTTLVTSVAPASSTFATAVVTTVAPAVTDVVTVTDVVTVTTVITTTVL
# B3: T. terrestris GH61E polypeptide: GH61E polypeptide having cellulolytic enhancing activity (SEQ ID NO: 8), recombinantly prepared according to WO 2005/074647 A2 (protein, listed as Thielavia terrestris)
# chain: MLANGAIVFLAAALGVSGHYTWPRVNDGADWQQVRKADNWQDNGYVGDVTSPQIRCFQATPSPAPSVLNTTAGSTVTYWANPDVYHPGPVQFYMARVPDGEDINSWNGDGAVWFKVYEDHPTFGAQLTWPSTGKSSFAVPIPPCIKSGYYLLRAEQIGLHVAQSVGGAQFYISCAQLSVTGGGSTEPPNKVAFPGAYSATDPGILINIYYPVPTSYQNPGPAVFSC
# B4: T. stipitatus GH61 polypeptide: GH61 polypeptide having cellulolytic enhancing activity (SEQ ID NO: 164), recombinantly prepared as described in Example 3 (protein, listed as Talaromyces stipitatus)
# chain: MPSTKVAALSAVLALASTVAGHGFVQNIVIDGKSYTGYLVNQYPYQSNPPAVIGWSTTATDLGFVDGSGYTNPDIICHKNAKPGQLSAPVAAGGKVELEWTTWPESHHGPVISYLANCNGDCTTVDKTKLEFVKIDQRGLIDDSNPPGTWAADQLIAANNSWTVTIPESIAPGNYVLRHEIIALHSANNATGAQNYPQCINLQITGSGTANPSGTPGEKLYTPTDPGILVNIYQSLSSYVIPGPTLWSGAAAHVVATAAGSATGVASATATPTTLVTAVSSPTGAPSVVTPEAPSVTSFAPVVTVTDVVTVTTVITTTIS
# B5: T. reesei GH61B polypeptide: GH61B polypeptide having cellulolytic enhancing activity (SEQ ID NO: 16), recombinantly prepared according to WO 2007/089290 A2 (protein, listed as Trichoderma reesei)
# chain: MKSCAILAALGCLAGSVLGHGQVQNFTINGQYNQGFILDYYYQKQNTGHFPNVAGWYAEDLDLGFISPDQYTTPDIVCHKNAAPGAISATAAAGSNIVFQWGPGVWPHPYGPIVTYVVECSGSCTTVNKNNLRWVKIQEAGINYNTQVWAQQDLINQGNKWTVKIPSSLRPGNYVFRHELLAAHGASSANGMQNYPQCVNIAVTGSGTKALPAGTPATQLYKPTDPGILFNPYTTITSYTIPGPALWQG
# Tests used:
# [1] = target: A. oryzae CEL3A beta-glucosidase (Aspergillus oryzae, UniProt Q2UUD6); format: biochemical; details: 96 hours at 50° C.
# [2] = system: A. oryzae CEL3A beta-glucosidase; format: biochemical; details: 96 hours at 50° C.
# [3] = system: Trichoderma reesei cellulase composition; test: Hydrolysis of AVICEL® (microcrystalline cellulose) by the T. reesei cellulase composition; details: for quinone compound effect(no GH61) (ratio, Equation 2): AVICEL®; for Percent conversion of AVICEL®: no quinone compound, cellulase 4 mg protein/g cellulose, GH61 polypeptide where present 0.4 mg/g cellulose (10% w/w of cellulase)
# [4] = system: Penicillium pinophilum GH61A polypeptide; format: biochemical; details: P. pinophilum GH61A 0.4 or 2 mg per ml
# [5] = target: Aspergillus fumigatus GH61B polypeptide (Aspergillus fumigatus, UniProt Q4WP32); format: biochemical; details: A. fumigatus GH61B 0.4 or 2 mg per ml
# Chain of Aspergillus fumigatus GH61B polypeptide (Q4WP32 22-250): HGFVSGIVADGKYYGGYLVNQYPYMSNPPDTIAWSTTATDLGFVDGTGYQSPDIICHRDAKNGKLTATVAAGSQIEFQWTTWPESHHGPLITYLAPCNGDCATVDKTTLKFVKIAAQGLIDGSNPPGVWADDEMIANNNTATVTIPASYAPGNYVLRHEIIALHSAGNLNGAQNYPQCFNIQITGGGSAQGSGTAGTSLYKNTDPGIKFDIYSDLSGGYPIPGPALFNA
# [6] = system: Talaromyces stipitatus GH61 polypeptide; format: biochemical; details: T. stipitatus GH61 0.4 or 2 mg per g cellulose
# [7] = system: Thielavia terrestris GH61E polypeptide; format: biochemical; details: AVICEL®, T. terrestris GH61E 0.4 or 2 mg per ml
# [8] = system: Trichoderma reesei cellulase composition; details: milled washed PCS
# [9] = system: Trichoderma reesei cellulase composition; details: milled unwashed PCS; 5 mM quinone; 1, 3, and 7 days (white bars)
# [10] = quinone added to A. oryzae CEL3A beta-glucosidase (10 mg/g cellulose), no GH61A
# [11] = quinone with T. aurantiacus GH61A polypeptide (10 mg/g cellulose) and A. oryzae CEL3A beta-glucosidase (10 mg/g cellulose)
# [12] = component added alone, beta-glucosidase or GH61A 10 mg protein per g cellulose, adrenochrome […] w/w, 4-tert-butyl-5-methoxy-1,2-benzoquinone 0.15% w/w
# [13] = quinone with T. aurantiacus GH61A polypeptide (10 mg/g cellulose), no beta-glucosidase
# [14] = 5 mM quinone, 1, 3, and 7 days (white bars)
# [15] = AVICEL®, 5 mM quinone present, days 3 and 7
# [16] = AVICEL®, 5 mM quinone, day 1 and 3
molecule,measurement,setting,value
"CN1CC(O)C2=CC(=O)C(=O)C=C21 (stereo not shown) [adrenochrome, 3-hydroxy-1-methyl-5,6-indolinedione]",conversion of PASC,[1]; [10],0.3±0.3%
same,conversion of PASC,[1]; [11],8.5±2.0%
same,conversion of PASC,[2]; [12],no significant conversion
same,conversion of PASC,[2]; [13],0.1±0.1%
"O=C1C=CC(=O)C=C1 [1,4-benzoquinone]","quinone compound effect(no GH61) (ratio, Equation 2)",[3]; [14],less than 1
O=C1C=C(O)C(=O)c2ccccc21,"quinone compound effect(no GH61) (ratio, Equation 2)","[3]; 1 mM quinone, FIG. 1E white bars",less than 1
"CC1=CC(=O)C=CC1=O [2-methyl-1,4-benzoquinone]",Day 7 hydrolysis of AVICEL® in the presence of quinone and GH61 polypeptide,"[4]; 5 mM quinone, day 7",not significantly impacted
same,"GH61 effect (ratio, Equation 4)",[4]; [15],greater than 1
same,"quinone compound effect(+GH61) (ratio, Equation 3)",[4]; [16],less than 1
same,Day 7 hydrolysis of AVICEL® in the presence of quinone and GH61 polypeptide,"[5]; 5 mM quinone, day 7",not significantly impacted
same,"GH61 effect (ratio, Equation 4)",[5]; [15],greater than 1
same,"quinone compound effect(+GH61) (ratio, Equation 3)",[5]; [16],less than 1
same,Day 7 hydrolysis of AVICEL® in the presence of quinone and GH61 polypeptide,"[6]; 5 mM quinone, day 7",not significantly impacted
same,"GH61 effect (ratio, Equation 4)",[6]; [15],greater than 1
same,"quinone compound effect(+GH61) (ratio, Equation 3)",[6]; [16],less than 1
same,"GH61 effect (ratio, Equation 4)","[7]; 5 mM quinone present, days 3 and 7",greater than 1
same,"quinone compound effect(+GH61) (ratio, Equation 3)","[7]; 5 mM quinone, day 7",less than 1
same,"quinone compound effect(no GH61) (ratio, Equation 2)",[3]; [14],less than 1
"COC1=CC(=O)C(=O)C=C1C(C)(C)C [4-tert-butyl-5-methoxy-1,2-benzoquinone]",conversion of PASC,[1]; [10],1.6±0.1%
same,conversion of PASC,[1]; [11],29.9±3.2%
same,conversion of PASC,[2]; [12],no significant conversion
same,conversion of PASC,[2]; [13],0.8±0.6%
COC1=C(OC)C(=O)C(C)=CC1=O,"quinone compound effect(no GH61) (ratio, Equation 2)","[8]; 10 mM quinone, 1 and 3 days, cellulase 2 mg per g cellulose",less than 1
same,"quinone compound effect(no GH61) (ratio, Equation 2)",[9],greater than 1
same,"quinone compound effect(no GH61) (ratio, Equation 2)","[3]; 5 mM quinone, day 3 and 7",less than 1
same,"quinone compound effect(no GH61) (ratio, Equation 2)","[3]; 10 mM quinone, 1 and 3 days",less than 1
"O=C1C=CC(=O)c2ccccc21 [1,4-naphthoquinone]","quinone compound effect(no GH61) (ratio, Equation 2)",[8]; [14],less than 1
same,"quinone compound effect(no GH61) (ratio, Equation 2)",[3]; [14],less than 1
O=C1c2ccccc2C(=O)c2c(O)ccc(O)c21,"quinone compound effect(no GH61) (ratio, Equation 2)","[3]; 1 mM quinone, 3 days of hydrolysis",0.932±0.0123
same,"quinone compound effect(no GH61) (ratio, Equation 2)","[3]; 1 mM quinone, 7 days of hydrolysis",1.01±0.0120
B1,conversion of PASC,[2]; [12],1.5±0.3%
B2,Percent conversion of AVICEL®,[3]; 1 day,14.1±0.4%
same,Percent conversion of AVICEL®,[3]; 3 days,28.5±0.5%
same,Percent conversion of AVICEL®,[3]; 7 days,46±2%
B3,Percent conversion of AVICEL®,[3]; 1 day,14.7±0.3%
same,Percent conversion of AVICEL®,[3]; 3 days,29.2±0.4%
same,Percent conversion of AVICEL®,[3]; 7 days,49.3±0.5%
B4,Percent conversion of AVICEL®,[3]; 1 day,13.6±0.4%
same,Percent conversion of AVICEL®,[3]; 3 days,27.9±0.2%
same,Percent conversion of AVICEL®,[3]; 7 days,44.7±0.5%
B5,Percent conversion of AVICEL®,[3]; 1 day,13.6±0.4%
same,Percent conversion of AVICEL®,[3]; 3 days,29±2%
same,Percent conversion of AVICEL®,[3]; 7 days,44±2%
